Where “and” joins values, the source holds several entries; their conditions need not be identical. Identical values can stand only once.
Test system: 521955-158-R6-J3-PDC complex spheroid growth, % test/control
Test: Anticancer human tumor 521955-158-R6-J3-PDC patient-derived pancreatic carcinoma cell line growth inhibition [Asc]
Settings: for viability, T/C: stronger effect = lower value
Method: Multicellular complex tumor spheroid response to apoptosis pathway targeting inhibitors Alrizomadlin, Pelcitoclax, and Dasminapant in combination with a variety of drugs and investigational agents in selected tumor cell lines
The MDM2 inhibitor alrizomadlin, the Bcl-2/Bcl-xL inhibitor pelcitoclax, and the IAPs inhibitor dasminapant were evaluated both individually and in combination with standard of care and investigational anticancer small molecules within a complex spheroid model of solid tumors. . Complex spheroids include a stromal component modeled by human endothelial cells (HUVEC) and fibroblasts modeled by human mesenchymal stem cells (MSCs). The concentration ranges selected for each drug and investigational agent were based upon clinically achievable concentrations if the clinical Cmax of the agent was known.
Compounds. The drugs and investigational agents: alrizomadlin (APG-115; NSC831270), pelcitoclax (APG-1252; NSC835773), dasminapant (APG-1387;NSC834197), TAK-243 (NSC785004), copanlisib (NSC809693), olaparib (NSC753686), talazoparib (NSC767125), cobimetinib (NSC 768068), eltanexor (KPT-8602, NSC 794443), abemaciclib (NSC 768073), sotorasib (NSC818433), adagrasib (NSC 831453), MRTX-1133 (NSC 836407), Iadademestat (ORY1001, NSC 806812), and RMC-4630 (NSC839698), were obtained from the NCI Developmental Therapeutics Program Chemical Repository. The FDA-approved anticancer drug set is available from the Developmental Therapeutics Program at https://dtp.cancer.gov/organization/dscb/obtaining/available plates.htm. […] The stock solutions were prepared in dimethyl sulfoxide (DMSO, Sigma-Aldrich, St. Louis, MO, cat. D2650) at 800-fold the tested concentration and stored at -70 degrees C prior to their use. All drugs and investigational agents were tested over a range starting from a high concentration at or near the clinical Cmax and decreasing in half-log increments. If the clinical Cmax for an agent had not been determined, the highest concentration tested was 10 microM.
The patient-derived cancer (PDC) cell lines include five colon adenocarcinomas: 186277-243-T-J2-PDC, 616215-338-R-J1-PDC, 439559-082-T-J2-PDC, 463943-066-T-J2-PDC, and 519858-162-T-J1-PDC; three pancreatic carcinomas: 323965-272-R-J2-PDC, 521955-158-R6-J3-PDC, and 521955-158-R2-J5-PDC; two uterine sarcomas: 327498-152-R-J2-PDC and 993429-296-R-J1-PDC; two rhabdomyosarcomas: 755483-174-R-J1-PDC and 772245-204-R-J1-PDC; two soft tissue sarcomas: 126254-015-R-J1-PDC and 494315-158-R-J1-PDC; two malignant fibrous histiocytomas: 317291-083-R-J1-PDC and 596521-263-R-J1-PDC; two breast carcinomas: 171881-019-R-J1-PDC and 885512-296-R-J2-PDC; and one ovarian carcinoma: 6556581-035-R-J-PDC were obtained from the NCI PDMR, (https://pdmr.cancer.gov). The established cell lines HSSY-2 synovial sarcoma (RRID:CVCL 8719), SYO-1 synovial sarcoma (RRID:CVCL_7146), MPNST malignant peripheral neural sheath tumor were obtained from the Sloan Kettering Institute. The following established cell lines were purchased from the American Type Culture Collection (ATCC, Manassas, VA), Sor the received from the NCI repository:, PANC-1 pancreatic carcinoma (CRL-1469, RRID:CVCL_0480), OVCAR-5 ovarian carcinoma (RRID:CVCL_1628), OVCAR-8 ovarian carcinoma (RRID:CVCL_1629), , MCF-7 breast carcinoma (CRL-12584, RRID:CVCL_0031), MDA-MB-231 breast carcinoma (CRL-12532, RRID:CVCL_0062), NCI-H1876 small cell lung carcinoma (CRL-5902, RRID:CVCL_1503), NCI-H510A small cell lung carcinoma (HTB-184, RRID:CVCL_1565), NCI-H1417 (CRL-5869, RRID:CVCL_1469), and NCI-H196 small cell lung carcinoma (CRL-5823, RRID:CVCL_1509). Dr. Peter Houghton (Greehey Children's Cancer Research Institute, University of Texas Health Science Center, San Antonio, TX) provided Rh-18 rhabdomyosarcoma (RRID:CVCL_1659). Pooled donor human umbilical vein endothelial cells (HUVEC, Lonza, cat. CC-2519) and human mesenchymal stem cells (hMSC, Lonza, cat. PT-2501) were purchased from Lonza (Walkersville, MD).
Cell Culture. […]
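Also: spheroids exposed to compounds for 7 days.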
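For viability, T/C in this document: 100% = DMSO vehicle control wells.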

For CCN1C(C(=O)NC23CCC(C(=O)O)(CC2)CC3)C(c2cccc(Cl)c2F)C2(C(=O)Nc3cc(Cl)ccc32)C12CCCCC2 (configuration not stated), the viability, T/C (compound 0.3 µM) was 109% [middle of 9 runs], the IC50 (compound alone, run of 11/07/2022) was > 3000 nM and the IC50 (curve of compound) was > 3000 nM.
C#Cc1c(F)ccc2cc(O)cc(-c3ncc4c(N5CC6CCC(C5)N6)nc(OCC56CCCN5CC(F)C6)nc4c3F)c12 (configuration not stated) was tested, and the viability, T/C (compound 0.0316 µM) was 60.7% and 66.5% and 60.8%, the viability, T/C (compound 0.1 µM) was 52.9% and 52% and 53.5% and the viability, T/C (compound 0.316 µM) was 46% and 58.3% and 47.4%. The viability, T/C (compound 1 µM) was 48% and 45.1% and 47%, the viability, T/C (compound 3.16 µM) was 33.9% and 35.5% and 44.9% and the viability, T/C (compound 10 µM) was 18.6% and 32.2%. The IC50 (curve of compound) was 342 nM and 452 nM and 387 nM.
In the case of CCN1CCN(Cc2ccc(Nc3ncc(F)c(-c4cc(F)c5nc(C)n(C(C)C)c5c4)n3)nc2)CC1 + Cc1c(S(C)(=O)=O)c(-c2cc(F)cc(N3CCN(c4ccc(NS(=O)(=O)c5ccc(NC(CCN6CCC(C(=O)OCCCP(=O)(O)O)CC6)CSc6ccccc6)c(S(=O)(=O)C(F)(F)F)c5)cc4)CC3)c2)c(-c2ccc(Cl)cc2)n1C(C)C, the IC50 (curve of first compound, second compound 0.0316 µM) is reported as > 1000 nM, the IC50 (curve of first compound, second compound 0.1 µM) is reported as > 1000 nM and the IC50 (curve of first compound, second compound 0.316 µM) is reported as < 3.16 nM. For the same compound, the IC50 (curve of first compound, second compound 1 µM) was < 3.16 nM, the IC50 (curve of first compound, second compound 3.16 µM) was < 3.16 nM and the IC50 (curve of first compound, second compound 10 µM) was < 3.16 nM. The viability, T/C (second compound 0.0316 µM, first compound 0.00316 µM) was 96.2%, the viability, T/C (second compound 0.0316 µM, first compound 0.01 µM) was 81% and the viability, T/C (second compound 0.0316 µM, first compound 0.0316 µM) was 73.6%. For the same compound, the viability, T/C (second compound 0.0316 µM, first compound 0.1 µM) was 71.9%, the viability, T/C (second compound 0.0316 µM, first compound 0.316 µM) was 67.6% and the viability, T/C (second compound 0.0316 µM, first compound 1 µM) was 84.4%. For the same compound, the viability, T/C (second compound 0.1 µM, first compound 0.00316 µM) was 72.3%, the viability, T/C (second compound 0.1 µM, first compound 0.01 µM) was 57.5% and the viability, T/C (second compound 0.1 µM, first compound 0.0316 µM) was 62%. It also gave a viability, T/C (second compound 0.1 µM, first compound 0.1 µM) of 63.1%, a viability, T/C (second compound 0.1 µM, first compound 0.316 µM) of 82.1% and a viability, T/C (second compound 0.1 µM, first compound 1 µM) of 73.5%. The viability, T/C (second compound 0.316 µM, first compound 0.00316 µM) was 53%, the viability, T/C (second compound 0.316 µM, first compound 0.01 µM) was 49% and the viability, T/C (second compound 0.316 µM, first compound 0.0316 µM) was 43.9%. It also gave a viability, T/C (second compound 0.316 µM, first compound 0.1 µM) of 53.6%, a viability, T/C (second compound 0.316 µM, first compound 0.316 µM) of 49.4% and a viability, T/C (second compound 0.316 µM, first compound 1 µM) of 53.9%. For the same compound, the viability, T/C (second compound 1 µM, first compound 0.00316 µM) was 35.6%, the viability, T/C (second compound 1 µM, first compound 0.01 µM) was 39.1% and the viability, T/C (second compound 1 µM, first compound 0.0316 µM) was 29.4%. It also gave a viability, T/C (second compound 1 µM, first compound 0.1 µM) of 37.3%, a viability, T/C (second compound 1 µM, first compound 0.316 µM) of 34.2% and a viability, T/C (second compound 1 µM, first compound 1 µM) of 41.1%. The viability, T/C (second compound 3.16 µM, first compound 0.00316 µM) was 21.4%, the viability, T/C (second compound 3.16 µM, first compound 0.01 µM) was 18.7% and the viability, T/C (second compound 3.16 µM, first compound 0.0316 µM) was 18.4%. It also gave a viability, T/C (second compound 3.16 µM, first compound 0.1 µM) of 19.4%, a viability, T/C (second compound 3.16 µM, first compound 0.316 µM) of 24.2% and a viability, T/C (second compound 3.16 µM, first compound 1 µM) of 26.1%. It also gave a viability, T/C (second compound 10 µM, first compound 0.00316 µM) of 30.4%, a viability, T/C (second compound 10 µM, first compound 0.01 µM) of 16.3% and a viability, T/C (second compound 10 µM, first compound 0.0316 µM) of 15%. For the same compound, the viability, T/C (second compound 10 µM, first compound 0.1 µM) was 15.2%, the viability, T/C (second compound 10 µM, first compound 0.316 µM) was 26.6% and the viability, T/C (second compound 10 µM, first compound 1 µM) was 28.9%.
